Laboratory results: patent US20240150377A1, “MODULATORS OF CYSTIC FIBROSIS TRANSMEMBRANE CONDUCTANCE REGULATOR” (VERTEX PHARMACEUTICALS INCORPORATED, priority 2020, published 2024)
Blank lines part the entries; values can stand above or below the compound they belong to.

Target: T1, CFTR (Homo sapiens, UniProt P13569, DEL508-508)
T1 construct: endogenous in cells; host or cells: primary human bronchial epithelial cells from CF subjects (F508del/MF-HBE), differentiated at air-liquid interface
Experiment: HBE2 assay: Ussing chamber assay of CFTR-mediated short-circuit currents
Type: cell-based
Details: F508del/MF-HBE cells, with 44 nM potentiator, 18-24 hours, 20% human serum; for Emax: read-out: HBE2 Max activity (%)
How it was run: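 F508del/MF-HBE cultured >14 days at air-liquid interface, mounted in Ussing chambers; transepithelial short-circuit current recorded under voltage clamp (Vhold=0 mV) at 37 °C. CFTR-mediated ISC (μA/cm^2) taken as peak forskolin response relative to steady-state current after inhibition; corrector activity assessed this way.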

T1 sequence (P13569 with tags, fused parts or gaps DEL508-508): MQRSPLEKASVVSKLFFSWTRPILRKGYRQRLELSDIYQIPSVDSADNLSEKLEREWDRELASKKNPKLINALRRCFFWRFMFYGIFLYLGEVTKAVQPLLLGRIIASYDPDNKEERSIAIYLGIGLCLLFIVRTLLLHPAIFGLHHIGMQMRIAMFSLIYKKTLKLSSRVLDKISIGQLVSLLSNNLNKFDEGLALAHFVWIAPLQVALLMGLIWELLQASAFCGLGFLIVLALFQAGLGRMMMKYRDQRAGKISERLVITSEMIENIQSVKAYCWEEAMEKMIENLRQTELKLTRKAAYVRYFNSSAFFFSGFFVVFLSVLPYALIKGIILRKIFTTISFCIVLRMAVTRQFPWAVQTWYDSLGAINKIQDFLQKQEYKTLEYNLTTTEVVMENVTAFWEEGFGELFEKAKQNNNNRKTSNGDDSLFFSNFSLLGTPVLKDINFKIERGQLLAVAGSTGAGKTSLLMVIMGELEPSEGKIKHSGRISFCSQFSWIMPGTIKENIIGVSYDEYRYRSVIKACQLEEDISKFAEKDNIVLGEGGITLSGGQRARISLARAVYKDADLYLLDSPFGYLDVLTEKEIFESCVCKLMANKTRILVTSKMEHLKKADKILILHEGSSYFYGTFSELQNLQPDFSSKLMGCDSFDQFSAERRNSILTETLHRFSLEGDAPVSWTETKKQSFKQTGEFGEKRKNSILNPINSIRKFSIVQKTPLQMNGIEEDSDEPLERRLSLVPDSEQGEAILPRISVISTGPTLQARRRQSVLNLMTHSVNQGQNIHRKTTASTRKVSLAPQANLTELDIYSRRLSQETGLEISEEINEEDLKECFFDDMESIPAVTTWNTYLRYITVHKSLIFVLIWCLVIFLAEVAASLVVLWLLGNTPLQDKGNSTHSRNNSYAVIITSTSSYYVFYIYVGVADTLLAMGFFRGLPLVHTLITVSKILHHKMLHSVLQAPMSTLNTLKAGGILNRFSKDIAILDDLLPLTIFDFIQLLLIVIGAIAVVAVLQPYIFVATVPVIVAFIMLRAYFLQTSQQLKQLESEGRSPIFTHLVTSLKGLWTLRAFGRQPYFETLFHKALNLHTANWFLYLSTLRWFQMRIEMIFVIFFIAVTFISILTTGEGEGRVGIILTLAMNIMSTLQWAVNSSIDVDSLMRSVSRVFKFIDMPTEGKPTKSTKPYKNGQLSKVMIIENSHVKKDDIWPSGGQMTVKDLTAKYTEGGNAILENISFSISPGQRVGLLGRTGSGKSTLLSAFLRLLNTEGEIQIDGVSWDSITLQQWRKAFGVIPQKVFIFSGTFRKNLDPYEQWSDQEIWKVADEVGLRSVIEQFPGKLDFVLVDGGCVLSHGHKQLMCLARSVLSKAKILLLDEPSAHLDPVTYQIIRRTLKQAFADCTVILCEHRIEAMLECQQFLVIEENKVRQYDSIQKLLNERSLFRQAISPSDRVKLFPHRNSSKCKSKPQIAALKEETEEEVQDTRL

Structure (SMILES): Cc1cccc(C)c1-c1cc2nc(n1)NS(=O)(=O)c1cccc(c1)C(=O)N(Cc1ncc(N3CCC(F)(F)C3)cn1)[C@H](CC1(C)CC1)CO2 [Compound 1548]
HBE2 Activity at 3 μM (%): +++ (+++ is >60+)

Structure (SMILES): COC[C@@H]1CCN1c1cncc(CN2C(=O)c3cccc(c3)S(=O)(=O)Nc3nc(cc(-c4c(C)cccc4C)n3)OC[C@H]2CC(C)(C)C)n1 [Compound 1549]
HBE2 Activity at 3 μM (%): +++ (+++ is >60+)
EC50: < 1 µM
Emax: > 60%

Structure (SMILES): CC[C@@H](C)Oc1cnc(CN2C(=O)c3cccc(c3)S(=O)(=O)Nc3nc(cc(-c4c(C)cccc4C)n3)OC[C@H]2CC2(C)CC2)nc1 [Compound 1555]
HBE2 Activity at 3 μM (%): +++ (+++ is >60+)

Structure (SMILES): CC[C@@H](C)Oc1cnc(CN2C(=O)c3cccc(c3)S(=O)(=O)Nc3nc(cc(-c4c(C)cccc4C)n3)OC[C@H]2CC2CCC2)nc1 [Compound 1556]
HBE2 Activity at 3 μM (%): +++ (+++ is >60+)

Structure (SMILES): Cc1cccc(C)c1-c1cc2nc(n1)NS(=O)(=O)c1cccc(c1)C(=O)N(Cc1ncc(N3CCC(C)(C)CC3)cn1)[C@H](CC1(C)CC1)CO2 [Compound 1560]
HBE2 Activity at 3 μM (%): +++ (+++ is >60+)

Structure (SMILES): Cc1cccc(C)c1-c1cc2nc(n1)NS(=O)(=O)c1cccc(c1)C(=O)N(Cc1ncc(N3CCC(C)(C)C3)cn1)[C@H](CC1(C)CC1)CO2 [Compound 1561]
HBE2 Activity at 3 μM (%): +++ (+++ is >60+)

Structure (SMILES): CCCOc1cnc(CN2C(=O)c3cccc(c3)S(=O)(=O)Nc3nc(cc(-c4c(C)cccc4C)n3)OC[C@H]2CC2(C)CC2)nc1 [Compound 1562]
HBE2 Activity at 3 μM (%): +++ (+++ is >60+)

Structure (SMILES): Cc1cccc(C)c1-c1cc2nc(n1)NS(=O)(=O)c1cccc(c1)C(=O)N(Cc1ncc(N3CC(C)(C)C3)cn1)[C@H](CC(C)C)CO2 [Compound 1563]
HBE2 Activity at 3 μM (%): +++ (+++ is >60+)

Structure (SMILES): Cc1cccc(C)c1-c1cc2nc(n1)NS(=O)(=O)c1cccc(c1)C(=O)N(Cc1ncc(OC(C)C)cn1)[C@H](CC1CCC1)[C@@H](C)O2 [Compound 1565]
HBE2 Activity at 3 μM (%): +++ (+++ is >60+)

Structure (SMILES): Cc1cccc(C)c1-c1cc2nc(n1)NS(=O)(=O)c1cccc(c1)C(=O)N(Cc1ncc(OC(C)C)cn1)[C@H](CC1CCC1)[C@@H](C)O2 [Compound 1566]
HBE2 Activity at 3 μM (%): + (+ is <300))

Structure (SMILES): Cc1cccc(C)c1-c1cc2nc(n1)NS(=O)(=O)c1cccc(c1)C(=O)N(Cc1ncc(OC(C)C)cn1)[C@H](CC1CCC1)[C@@H](C)O2 [Compound 1567]
HBE2 Activity at 3 μM (%): +++ (+++ is >60+)

Structure (SMILES): Cc1cccc(C)c1-c1cc2nc(n1)NS(=O)(=O)c1cccc(c1)C(=O)N(Cc1ncc(OC(C)C)cn1)[C@H](CC1CCC1)[C@@H](C)O2 [Compound 1568]
HBE2 Activity at 3 μM (%): +++ (+++ is >60+)

Structure (SMILES): Cc1cccc(C)c1-c1cc2nc(n1)NS(=N)(=O)c1cccc(c1)C(=O)N(Cc1ncc(OC(C)C)cn1)[C@H](CC(C)(C)C)CO2 (some centres unmarked) [Compound 1574]
HBE2 Activity at 3 μM (%): ++ (++ is 30-60%)

Structure (SMILES): Cc1cccc(C)c1-c1cc2nc(n1)NS(=N)(=O)c1cccc(c1)C(=O)N(Cc1ncc(OC(C)C)cn1)[C@H](CC(C)(C)C)CO2 (some centres unmarked) [Compound 1575]
HBE2 Activity at 3 μM (%): +++ (+++ is >60+)

Structure (SMILES): Cc1cccc(C)c1-c1cc2nc(n1)NS(=O)(=O)c1cccc(c1)C(=O)N(Cc1ncc(OC3CCC3)cn1)[C@H](CC1(C)CC1)CO2 [Compound 1576]
HBE2 Activity at 3 μM (%): +++ (+++ is >60+)

Structure (SMILES): CCCOc1cnc(CN2C(=O)c3cccc(c3)S(=O)(=O)Nc3nc(cc(-c4c(C)cccc4C)n3)OC[C@H]2CCC(C)C)nc1 [Compound 1577]
HBE2 Activity at 3 μM (%): +++ (+++ is >60+)

Structure (SMILES): CCN(CCOC)c1cncc(CN2C(=O)c3cccc(c3)S(=O)(=O)Nc3nc(cc(-c4c(C)cccc4C)n3)OC[C@H]2CC(C)(C)C)n1 [Compound 1580]
HBE2 Activity at 3 μM (%): +++ (+++ is >60+)
EC50: < 1 µM
Emax: > 60%

More lines, now with the values ahead:

HBE2 Activity at 3 μM (%): +++ (+++ is >60+)
Structure (SMILES): COC[C@@H]1CCN1c1cccc(CN2C(=O)c3cccc(c3)S(=O)(=O)Nc3nc(cc(-c4c(C)cccc4C)n3)OC[C@H]2CC(C)(C)C)n1 [Compound 1550]

HBE2 Activity at 3 μM (%): +++ (+++ is >60+)
Structure (SMILES): Cc1cccc(C)c1-c1cc2nc(n1)NS(=O)(=O)c1cccc(c1)C(=O)N(Cc1cccc(N3CC[C@H]3C)n1)[C@H](CC(C)(C)C)CO2 [Compound 1551]

HBE2 Activity at 3 μM (%): +++ (+++ is >60+)
Structure (SMILES): Cc1cccc(C)c1-c1cc2nc(n1)NS(=O)(=O)c1cccc(c1)C(=O)N(Cc1nccc(N3CC[C@H]3C)n1)[C@H](CC(C)(C)C)CO2 [Compound 1552]

HBE2 Activity at 3 μM (%): +++ (+++ is >60+)
Structure (SMILES): COC[C@@H]1CCN1c1ccnc(CN2C(=O)c3cccc(c3)S(=O)(=O)Nc3nc(cc(-c4c(C)cccc4C)n3)OC[C@H]2CC(C)(C)C)n1 [Compound 1553]

HBE2 Activity at 3 μM (%): +++ (+++ is >60+)
Structure (SMILES): Cc1cccc(C)c1-c1cc2nc(n1)NS(=O)(=O)c1cccc(c1)C(=O)N(Cc1ncc(N3CCC(C)(C)C3)cn1)[C@H](CC(C)(C)F)CO2 [Compound 1564]

HBE2 Activity at 3 μM (%): +++ (+++ is >60+)
Structure (SMILES): Cc1cccc(C)c1-c1cc2nc(n1)NS(=O)(=O)c1cccc(c1)C(=O)N(Cc1cccc(N3CCC[C@H]3C)n1)[C@H](CC1(C)CC1)CO2 [Compound 1569]

HBE2 Activity at 3 μM (%): +++ (+++ is >60+)
EC50: < 1 µM
Emax: > 60%
Structure (SMILES): Cc1cccc(C)c1-c1cc2nc(n1)NS(=O)(=O)c1cccc(c1)C(=O)N(Cc1cccc(N(C)C3CCC3)n1)[C@H](CC(C)(C)C)CO2 [Compound 1578]

HBE2 Activity at 3 μM (%): +++ (+++ is >60+)
EC50: < 1 µM
Emax: > 60%
Structure (SMILES): CCN(c1cncc(CN2C(=O)c3cccc(c3)S(=O)(=O)Nc3nc(cc(-c4c(C)cccc4C)n3)OC[C@H]2CC(C)(C)C)n1)C1CCC1 [Compound 1579]

HBE2 Activity at 3 μM (%): +++ (+++ is >60+)
Structure (SMILES): CC(=O)N(C)c1cncc(CN2C(=O)c3cccc(c3)S(=O)(=O)Nc3nc(cc(-c4c(C)cccc4C)n3)OC[C@H]2CC(C)(C)C)n1 [Compound 1581]

HBE2 Activity at 3 μM (%): +++ (+++ is >60+)
Structure (SMILES): COC(=O)N(C)c1cncc(CN2C(=O)c3cccc(c3)S(=O)(=O)Nc3nc(cc(-c4c(C)cccc4C)n3)OC[C@H]2CC(C)(C)C)n1 [Compound 1582]

HBE2 Activity at 3 μM (%): +++ (+++ is >60+)
Structure (SMILES): CC(=O)N(C)c1cccc(CN2C(=O)c3cccc(c3)S(=O)(=O)Nc3nc(cc(-c4c(C)cccc4C)n3)OC[C@H]2CC(C)(C)C)n1 [Compound 1583]

HBE2 Activity at 3 μM (%): +++ (+++ is >60+)
Structure (SMILES): COC(=O)N(C)c1cccc(CN2C(=O)c3cccc(c3)S(=O)(=O)Nc3nc(cc(-c4c(C)cccc4C)n3)OC[C@H]2CC(C)(C)C)n1 [Compound 1584]

HBE2 Activity at 3 μM (%): +++ (+++ is >60+)
Structure (SMILES): Cc1cccc(C)c1-c1cc2nc(n1)NS(=O)(=O)c1cccc(c1)C(=O)N(Cc1cccc(N3CCC[C@@]3(C)CO)n1)[C@H](CC(C)(C)C)CO2 [Compound 1586]

HBE2 Activity at 3 μM (%): +++ (+++ is >60+)
EC50: < 1 µM
Emax: > 60%
Structure (SMILES): CCN(c1cccc(CN2C(=O)c3cccc(c3)S(=O)(=O)Nc3nc(cc(-c4c(C)cccc4C)n3)OC[C@H]2CC(C)(C)C)n1)C1CCC1 [Compound 1587]

HBE2 Activity at 3 μM (%): +++ (+++ is >60+)
Structure (SMILES): Cc1cccc(C)c1-c1cc2nc(n1)NS(=O)(=O)c1cccc(c1)C(=O)N(Cc1cccc([C@@H](C)N3CCCC3)n1)[C@H](CC(C)(C)C)CO2 [Compound 1588]

HBE2 Activity at 3 μM (%): ++ (++ is 30-60%)
Structure (SMILES): Cc1cccc(C)c1-c1cc2nc(n1)NS(=O)(=O)c1cccc(c1)C(=O)N(Cc1cccc([C@@H](C)N3CCCC3)n1)[C@H](CC(C)(C)C)CO2 [Compound 1589]

HBE2 Activity at 3 μM (%): +++ (+++ is >60+)
Structure (SMILES): Cc1cccc(C)c1-c1cc2nc(n1)NS(=O)(=O)c1cccc(c1)C(=O)N(Cc1cccc([C@@H](C)NC(=O)C(C)C)n1)[C@H](CC(C)(C)C)CO2 [Compound 1590]
